The text below walks through data of US8080529B2, “Macrolides with anti-inflammatory activity” (Glaxo Group Limited, priority 2005, dated 2011).

One data set deals with A549. The data set can be described thus: Cytotoxicity assay (MTT), A549 cell line. Type of data set: cell-based. The conditions noted are these: 24 h. In outline:
(§1)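 Hep G2 and A549 cells were cultured 24 h at 37° C in RPM medium with test compounds at 50 μM and 12.5 μM. MTT was added for 0.5-2 h and formazan read at 490 nm. Growth value calculated as OD490 treated/OD490 nontreated ×100.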

Data set [1] has as its system human peripheral blood mononuclear cells (PBMC). Nature of the data set: Effects on human T-cell proliferation in vitro (3H-thymidine incorporation). Type of data set: cell-based. The conditions noted are these: Homo sapiens, PBMC, read-out: Percentage of inhibition of proliferation of stimulated PBMC. The procedure: The influence of the various test compounds at two different concentrations (50 μM and 10 μM) on cell proliferation of human peripheral blood mononuclear cells (PBMC) was assessed. […] The cells were pulsed with 1 μCi of ^3H-thymidine (Amersham, USA) per well during the last 18 h of the culture, and were harvested on the 96-well filter (Packard Bioscience, USA) using a multiple cell harvester (Packard, USA). The incorporation of ^3H-thymidine in activated cells were measured using TopCount NXT (Packard, USA). […] The positive control refers to LPS-, PMA- or zymosan-stimulated samples that were not treated with test compounds.

In the next data set the test system is Hep G2. Nature of the data set: Cytotoxicity assay (MTT), Hep G2 cell line. Type of data set: cell-based. To be noted: 24 h. In outline:
as §1

In data set [2] the test system is TNF-α. Nature of the data set: Lipopolysaccharide induced TNF-α production in Balb/cJ mice. To be noted: Mus musculus, ip, 1.5 h, read-out: % inhibition of TNF-α production (plasma). Type of data set: in vivo. The procedure: Male Balb/cJ mice (Iffa Credo, France) weighing 25-33 g were randomly grouped (n=7 in test group, 7 in positive control group, 4 in negative control group). Test compounds, as well as vehicle [0.125% carboxymethyl-cellulose (Sigma, USA)], were administered to the mice intraperitoneally. Test compounds were administered at a dose of 10 mg/kg of body weight, in a volume of 10 mL/kg of body weight. Thirty minutes later, a sterile solution of lipopolysaccharide (LPS) (Sigma, USA) in saline was intraperitoneally administered at a concentration and volume of 25 μg/0.2 mL/mouse to each animal, except those in negative control. Ninety minutes following administration, all animals were sacrificed by puncturing a. carotis communis. The plasma concentration of TNF-α was determined by sandwich ELISA, using capture and detection antibodies (R&D, USA) according to manufacturer's recommendations. Results are presented in the following table as percent of inhibition of TNF-α production in comparison to the positive control (stimulated, but untreated animals).

Another data set concerns IL-8. The data set can be described thus: Inhibition of IL-8 production by stimulated human peripheral blood leukocytes in vitro. Type of data set: cell-based. The conditions noted are these: Homo sapiens, Leukocyte, read-out: Percentage of inhibition of IL-8 production. The procedure, abridged: (§2)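 Values are percentage inhibition of cytokine release versus stimulated leukocytes lacking compound. Human blood leukocytes received 50 μM or 10 μM compound for 2 h before overnight LPS, PMA or zymosan stimulation, and supernatants were assayed by ELISA.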

The next data set deals with IL-1α. Nature of the data set: Inhibition of IL-1 production by stimulated human peripheral blood leukocytes in vitro. Type of data set: cell-based. To be noted: Homo sapiens, Leukocyte, read-out: Percentage of inhibition of IL-1α production.
The test system of data set [3] is TNF-α. The data set can be described thus: Inhibition of TNF-α production by stimulated human peripheral blood leukocytes in vitro. Type of data set: cell-based. The conditions noted are these: Homo sapiens, Leukocyte, read-out: Percentage of inhibition of TNF-α production. The procedure, abridged: as §2
The next data set relates to IL-6. Nature of the data set: Inhibition of IL-6 production by stimulated human peripheral blood leukocytes in vitro. Type of data set: cell-based. To be noted: Homo sapiens, Leukocyte, read-out: Percentage of inhibition of IL-6 production. The procedure, abridged: as §2
Where [4] appears, read: 10 mg/kg intraperitoneally, 30 min before LPS, 90 min after LPS.

Like-named read-outs stand apart in the source and are kept apart here.

For the compound `CC[C@H]1OC(=O)[C@H](C)[C@@H](O[C@H]2C[C@@](C)(OC)[C@@H](OC(=O)CCN(CC)CC)[C@H](C)O2)[C@H](C)[C@@H](O[C@@H]2O[C@H](C)C[C@H](N(C)C)[C@H]2O)[C@](C)(O)C[C@@H](C)NC(=O)[C@H](C)[C@@H](O)[C@]1(C)O` [Example 2, 4″-O-(3-Diethylamino-propionyl)-8a-aza-8a-homoerythromycin A], the “Percentage of inhibition of cell growth” value in the data set on A549 (12.5 μM) was 0%; in the data set with A549 (50 μM), 3%; in the data set on Hep G2 (12.5 μM), 0%; in the data set with Hep G2 (50 μM), 1%. The inhibition at 10 µM in data set [1] (PHA) came to 35%; in data set [1] (PMA + iono.), 1%. In addition, the inhibition at 50 µM worked out at 41% in data set [1] (PHA) and 31% in data set [1] (PMA + iono.). In addition, the inhibition in vivo at 10 mg/kg with TNF-α [2] (setting [4]) is 59%.
For the compound `CC[C@H]1OC(=O)[C@H](C)[C@@H](O[C@H]2C[C@@](C)(OC)[C@@H](OC(=O)CCN(CC)CC)[C@H](C)O2)[C@H](C)[C@@H](O[C@@H]2O[C@H](C)C[C@H](N(C)C)[C@H]2O)[C@](C)(OC)C[C@@H](C)C(=O)[C@H](C)[C@H]2N(C)C(=O)O[C@]12C` [Example 10, 11,12-(N-Methyl-carbamate)-11,12-dideoxy-4-O-(3-diethylaminopropionyl)-6-O-methyl-erythromycin A], the inhibition at 10 µM in the data set on IL-8 (LPS-stimulated PBL) was determined as 27%; with IL-8 (PMA-stimulated PBL) it was 0%; in the data set with IL-8 (zymosan-stimulated PBL), 28%; with IL-1α (LPS-stimulated PBL), 44%; with IL-1α (PMA-stimulated PBL) it was 30%; with IL-1α (zymosan-stimulated PBL), 48%. Besides, the inhibition at 10 µM was found to be 71% in data set [1] (PHA); 3% in data set [1] (PMA + iono.); 49% with TNF-α [3] (LPS-stimulated PBL); 41% in the data set on TNF-α [3] (PMA-stimulated PBL); 14% in the data set with TNF-α [3] (zymosan-stimulated PBL); 14% in the data set on IL-6 (LPS-stimulated PBL). In addition, the results for the inhibition at 10 µM with IL-6 (PMA-stimulated PBL) and in the data set on IL-6 (zymosan-stimulated PBL) were 12% and 19%, respectively. Further, the inhibition at 50 µM is 52% in the data set on IL-8 (LPS-stimulated PBL); 42% in the data set on IL-8 (PMA-stimulated PBL); 36% with IL-8 (zymosan-stimulated PBL); 41% in the data set on IL-1α (LPS-stimulated PBL); 0% with IL-1α (PMA-stimulated PBL); 49% in the data set with IL-1α (zymosan-stimulated PBL). For the same compound, the inhibition at 50 µM in data set [1] (PHA) stood at 98%; in data set [1] (PMA + iono.), 100%; in the data set with TNF-α [3] (LPS-stimulated PBL) it was 86%; with TNF-α [3] (PMA-stimulated PBL) it was 62%; in the data set with TNF-α [3] (zymosan-stimulated PBL) it was 72%; with IL-6 (LPS-stimulated PBL), 71%. Besides, the inhibition at 50 µM came out at 18% with IL-6 (PMA-stimulated PBL) and 39% in the data set with IL-6 (zymosan-stimulated PBL). In addition, the “Percentage of inhibition of cell growth” value worked out at 12% with A549 (12.5 μM), 6% with A549 (50 μM), 0% in the data set with Hep G2 (12.5 μM) and 5% with Hep G2 (50 μM).
Consider `CC[C@H]1OC(=O)[C@H](C)[C@@H](O[C@H]2C[C@@](C)(OC)[C@@H](OC(=O)CCN3CCN(CCN(CC)CC)CC3)[C@H](C)O2)[C@H](C)[C@@H](O[C@@H]2O[C@H](C)C[C@H](N(C)C)[C@H]2O)[C@](C)(OC)C[C@@H](C)C(=O)N[C@H](C)[C@@H](O)[C@]1(C)O` [Example 14], for which the “Percentage of inhibition of cell growth” value in the data set on A549 (12.5 μM) turned out to be 4%; in the data set with A549 (50 μM), 0%; in the data set on Hep G2 (12.5 μM) it was 0%; with Hep G2 (50 μM) it was 0%. Also, the inhibition at 10 µM worked out at 23% in data set [1] (PHA) and 24% in data set [1] (PMA + iono.). In addition, the inhibition at 50 µM in data set [1] (PHA) was 99%; in data set [1] (PMA + iono.) it was 91%. The inhibition in vivo at 10 mg/kg with TNF-α [2] (setting [4]) was 96%.
With `C=CC(=O)OC1[C@H](C)O[C@@H](O[C@H]2[C@H](C)[C@@H](O[C@@H]3O[C@H](C)C[C@H](NC)[C@H]3O)[C@](C)(OC)C[C@@H](C)C(=O)N[C@H](C)[C@@H](O)[C@](C)(O)[C@@H](CC)OC(=O)[C@@H]2C)C[C@@]1(C)OC` (some centres unmarked) [Example 53, 3′-N-Demethyl-4″-O-acryloyl-6-O-methyl-9a-aza-9a-homoerythromycin A], the inhibition at 10 µM with IL-8 (LPS-stimulated PBL) was 9%; with IL-8 (PMA-stimulated PBL), 30%; with IL-8 (zymosan-stimulated PBL) it was 19%; with IL-1α (LPS-stimulated PBL), 83%; in the data set on IL-1α (PMA-stimulated PBL), 92%; with IL-1α (zymosan-stimulated PBL), 92%. Further, the inhibition at 10 µM with TNF-α [3] (LPS-stimulated PBL) came out at 28%; with TNF-α [3] (PMA-stimulated PBL), 82%; in the data set on TNF-α [3] (zymosan-stimulated PBL) it was 64%; with IL-6 (LPS-stimulated PBL), 20%; with IL-6 (PMA-stimulated PBL), 66%; in the data set with IL-6 (zymosan-stimulated PBL) it was 68%. Also, the inhibition at 50 µM with IL-8 (LPS-stimulated PBL) was 100%; with IL-8 (PMA-stimulated PBL) it was 63%; in the data set on IL-8 (zymosan-stimulated PBL), 92%; with IL-1α (LPS-stimulated PBL), 95%; in the data set on IL-1α (PMA-stimulated PBL), 99%; with IL-1α (zymosan-stimulated PBL), 100%. The inhibition at 50 µM with TNF-α [3] (LPS-stimulated PBL) turned out to be 100%; in the data set with TNF-α [3] (PMA-stimulated PBL), 100%; in the data set with TNF-α [3] (zymosan-stimulated PBL), 100%; in the data set with IL-6 (LPS-stimulated PBL) it was 99%; in the data set on IL-6 (PMA-stimulated PBL), 95%; in the data set on IL-6 (zymosan-stimulated PBL), 100%. Besides, the “Percentage of inhibition of cell growth” value in the data set on A549 (12.5 μM) worked out at 9%; with A549 (50 μM), 12%; in the data set with Hep G2 (12.5 μM), 0%; in the data set on Hep G2 (50 μM), 2%.
For `CC[C@H]1OC(=O)[C@H](C)[C@@H](O[C@H]2C[C@@](C)(OC)[C@@H](OCCCN(CC)CC)[C@H](C)O2)[C@H](C)[C@@H](O[C@@H]2O[C@H](C)C[C@H](N(C)C)[C@H]2O)[C@](C)(OC)C[C@@H](C)C(=O)N[C@H](C)[C@@H](O)[C@]1(C)O` [Example 73, 4″-O-(3-Diethylaminopropyl)-6-O-methyl-9a-aza-9a-homoerythromycin A], the “Percentage of inhibition of cell growth” value with A549 (12.5 μM), with A549 (50 μM), with Hep G2 (12.5 μM) and in the data set on Hep G2 (50 μM) was 0% throughout. Besides, the inhibition in vivo at 10 mg/kg in the data set on TNF-α [2] is 90%.
